Reference: patent publication US20040058947A1, “Composition for the prevention or treatment of learning disorders in children suffering from attention deficit/hyperactive disorder” (priority 2001, published 2004)

Columns and labels:
[1] = system: glutamate-induced spontaneous motility in mice; test: Glutamate excitability tests (hypermotility after intracerebral glutamate); assay type: in vivo; details: treatment one hour prior, huperzine A 0.05 mg/kg, L-carnitine 200 mg/kg + acetyl L-carnitine 50 mg/kg
Description: Excitatory amino acids such as glutamate, if administered by intracerebral injection, produce a series of behavioural effects, the most evident of which is hypermotility.
To evaluate the effect of huperzine A and L-carnitine/acetyl L-carnitine and of a combination of these, mice received intracerebral injections of increasing doses of glutamate according to the method described by Lama (Lama E., Acta Pharmacol. Sinica, 9:252, 1988). The increase in spontaneous motility of these animals placed in a box with transparent walls was then evaluated by means of a photoelectric cell which recorded the number of passes for a period of five minutes. The motility test was conduced both in control animals and in animals treated one hour prior to injection of glutamate with huperzine A and with L-carnitine/acetyl L- carnitine and with a combination of these compounds. The results of these tests (see Table 2) indicate that treatment with huperzine A reduces the increase in motility induced by glutamate in mice, but that the greastest reduction is that obtained by administration of the combination of huperzine A and L-carnitine/acetyl L-carnitine.

[2] = system: cortical neurons isolated from mouse foetuses; test: Effect on glutamate-induced cortical neuronal toxicity; assay type: cell-based; details: monosodium glutamate 1 nmol·L^−1; L-carnitine/acetyl L-carnitine 5 nmol·L^−1, huperzine A 10 nmol·L^−1, added half an hour before glutamate; glutamate alone 20%
Method: As is known , persistent stimulation of glutamate receptors induces a neurotoxic effect leading to the death of neuronal cells: this is one of the mechanisms regarding as being responsible for the pathogenesis of Alzheimer's disease. The aim of these tests was to observe whether preincubation of cortical neuronal cells with L-carnitine+acetyl L-carnitine carnitine alone or in combination with huperzine A may lead to a reduction of glutamate-induced toxicity and to greater survival of neuronal cells. In these tests, cortical neurons isolated from mouse foetuses were used, according to the method described by Lin [Lin L., J. Nanjing Univ. (Natural Science Edition) 31:514, 1995—Lin L., Acta Pharmacol. Sinica, 17:221, 1996]. After isolating the cells, they were suspended on plates with a density of 6.4×10^8 cells/m^2 surface. To prevent proliferation of non-neuronal cells, […]. […]
The solutions of L-carnitine/acetyl L-carnitine or huperzine A were added to the Locke solution half an hour before monosodium glutamate. […] according to the procedure disclosed by Green (Green L. M., J. Immunol. Methods, 70:257, 1984).

## C/C=C1\[C@H]2C=C(C)C[C@]1(N)c1ccc(=O)[nH]c1C2 [huperzine A]
[1]; Glutamate 1 ng/mouse intracerebral, glutamate control 241 ± 35
  N. passes in 5 min observation: 226 ± 24
[1]; Glutamate 5 ng/mouse intracerebral, glutamate control 364 ± 39
  N. passes in 5 min observation: 296 ± 16
[2]
  survival rate of neuronal cells: 30%
